Results: patent US8129532B2, “Amino(oligo)thiophene dyes, preparation thereof, and optical methods of use” (The University of Connecticut, priority 2007, dated 2012)

Tests used:
[1] = One-photon absorption and emission spectra in multilamellar lipid vesicles, water and ethanol; format: physicochemical; settings: for 1PF Abs. Max / 1PF Em. Max: one photon, soybean multi-lamellar lipid vesicles
Excerpt: […] The column indicating relative signal change for one-photon fluorescence also lists the excitation light source used and the lower bounds of the long-pass emission detected.
Absorption and emission spectra were obtained for a series of dyes with different acceptors: pyridinium (PY-1261), quinolinium (PY-212), and acridinium (PY-2240).

[2] = tested on: layer V pyramidal neurons; test: Voltage-sensitive dye imaging of action potentials in intracellularly stained pyramidal neurons in brain slices; format: cell-based, Sprague Dawley rats; settings: for dF/F at 658 nm: backpropagating AP, basal dendrites 80-150 μm from soma, %; for dF/F at 658 nm / S/N ratio at 658 nm: laser spot 658 nm
Excerpt: Sprague Dawley rats (P21-42) were anesthetized with isoflurane, decapitated, and the brains were removed with the head immersed in ice-cold, artificial cerebrospinal fluid (ACSF), according to an animal protocol approved by the Center for Laboratory Animal Care, University of Connecticut. Brain slices (300 μm) were cut from frontal lobes in the coronal plane. ACSF contained (in mM) 125 NaCl, 26 NaHCO3, 10 glucose, 2.3 KCl, 1.26 KH2PO4, 2 CaCl2 and 1 MgSO4, pH 7.4. Whole-cell recordings were made from visually identified layer V pyramidal neurons on the medial part of the slice. Intracellular solution contained (in mM) 135 K-gluconate, 2 MgCl2, 3 Na2-ATP, 10 Na2-phosphocreatine, 0.3 Na2-GTP and 10 Hepes (pH 7.3, adjusted with KOH). Electrical signals were amplified with Multiclamp 700A and digitized with two input boards: (1) Digidata Series 1322A (Axon Instruments) at 5 kHz, and (2) Neuroplex (RedShirtImaging) at 2.7 kHz sampling rate. Only cells with a membrane potential more hyperpolarized than −50 mV, and action potential amplitudes exceeding 80 mV (measured from the base line) were included in this study. All experiments were performed on layer 5 cortical pyramidal cells at 34° C.
Blue dyes were stored in ethanol stock solution at −20° C. On the day of the recording blue dyes were dissolved in standard K-gluconate based intracellular solution. A loading pipette was filled with two varieties of the same intracellular solution; one with and one without dye. Dye-free solution was occupying the very tip of the pipette, while the back of the pipette lumen was microloaded with dye-rich solution. The purpose of dye-free solution in the tip of the patch pipette was to prevent dye-leak during the maneuver through brain slice tissue. VSD styryl dyes are lipophilic and bind indiscriminately and irreversibly to all membranes around the neuron of interest. Even a small amount of dye that leaks out of the pipette during the formation of the gigaohm seal, can generate strong fluorescent background. Fluorescent light emanating from surrounding tissue has a devastating effect on dendritic optical signals. Elimination of the background fluorescence is critical for dendritic voltage imaging. How much dye-free solution one should put in the tip depends on time period between the submersion of the patch pipette into the recording chamber and formation of the gigaohm seal. The faster one can perform this maneuver the less dye-free solution she needs to achieve optimal staining.
Blue VSD were injected at room temperature for 25-60 minutes. The filling pipette was carefully pulled out (outside-out patch) and brain slices were left to incubate for 20-120 minutes at room temperature. Just before optical recordings the cells were re-patched with dye-free pipette at the physiological temperature (34° C.).
Voltage-sensitive dye imaging was performed on a Zeiss Axioskope 2FS microscope equipped with NeuroCCD camera (RedShirtImaging). We used Zeiss 40× objective IR-Achroplan 0.80 W. The size of the square visual field captured by NeuroCCD camera was 384×384 um. In the place of the arc lamp (normally used for epi-illumination), we inserted a 200 μm fiber optic guide with a collimator. Laser beam was focused on the other side of the fiber optic guide using a microscope objective-like lens. This arrangement produced a motionless spot of laser light (˜25 μm in diameter) at the object plane. An illuminated section of the brain slice, projected onto the NeuroCCD camera, covered approximately 25 pixels when used with 40× objective lens. At this magnification, one pixel sampled a 4.8×4.8 square in the object plane. A region of interest (ROI) was brought into the laser spot using X-Y microscope platform. The laser beam was interrupted by an electro-programmable shutter (Uniblitz®). Attention was made to limit the exposure time during the recording and positioning of the neuron.

[3] = tested on: NIE-115 mouse neuroblastoma; test: Time-dependence (kinetics) of SHG and 2PF signal change after voltage-clamp step; format: cell-based
Excerpt: For full details of our non-linear imaging microscope, we refer the reader to previously published descriptions. A. C. Millard, P. J. Campagnola, W. Mohler, A. Lewis, and L. M. Loew, “Second Harmonic Imaging Microscopy,” Meth. Enzymol. 361, 47-69 (2003); Millard, A. C., L. Jin, and L. M. Loew, “Second Harmonic Generation Imaging Microscopy with a High Power Ultrafast Fiber Laser,”Commercial and Biomedical Applications of Ultrafast Lasers. 5714-5716, 92-98 (2005); A. C. Millard, L. Jin, M.-D. Wei, J. P. Wuskell, A. Lewis, and L. M. Loew, “Sensitivity of Second Harmonic Generation from Styryl Dyes to Transmembrane Potential,” Biophys. J. 86, 1169-1176 (2004). Our current microscope combines a Fluoview (Olympus) scan-head and an Axiovert (Zeiss) inverted microscope constructed for multiple imaging methodologies including wide-field, one-photon excitation fluorescence imaging, as well as SHG and 2PF imaging. Our laser sources include a Mira (Coherent) Ti:sapphire laser and a Femtopower (Fianium) fiber laser operating at 1064 nm. Millard, A. C., L. Jin, and L. M. Loew, “Second Harmonic Generation Imaging Microscopy with a High Power Ultrafast Fiber Laser,”Commercial and Biomedical Applications of Ultrafast Lasers. 5714-5716, 92-98 (2005). For excitation, we routinely use an IR-Achroplan (Zeiss) 40×, 0.8 NA water-immersion objective though for shorter wavelengths we also use an A-Plan (Zeiss) 40×, 0.65 NA air objective. Fluorescence is imaged (for linear imaging) or collected (for non-linear imaging) back through the excitation objective, while SHG is collected in the forward, transmitted light direction by a condenser, either 0.8 NA or 0.55 NA (Zeiss). For optimal collection, the numerical aperture of the condenser should be at least 1/√2 of the numerical aperture of the excitation objective (L. Moreaux, O. Sandre, S. Charpak, M. Blanchard-Desce, and J. Mertz, “Coherent Scattering in Multi-Harmonic Light Microscopy,” Biophys. J. 80, 1568-1574 (2001); L. Moreaux, O. Sandre, and J. Mertz. “Membrane Imaging by Second Harmonic Generation Microscopy,” J. Opt. Soc. Am. B. 17, 1685-1694 (2000)), though in practice a condenser of slightly lower numerical aperture will often suffice. Since the wavelength of second harmonic light is precisely half that of the excitation light, the choice of filter for SHG imaging is greatly simplified and the primary concern is the blocking of the excitation light that is also transmitted through the sample as well as fluorescence that is emitted forwards.
NIE-115 mouse neuroblastoma were cultured in DMEM with 10% fetal bovine serum and 1% antibiotic-antimycotic (Invitrogen, Carlsbad, Calif.) in a 60 mm plastic dish (353002, Becton Dickinson, Franklin Lakes, N.J.). The culture was maintained at 37° C. with 5% CO2 for a period of 48 hours prior to experimentation.
For experimentation the growth medium was replaced with 3 mL of Earle's Balanced Salt Solution (EBSS, Sigma, St. Louis, Mo.) with 20 mM HEPES (Merck Biosciences AG, Laufelfingen, Switzerland). The internal buffer, injected into the patch pipette, was a potassium aspartate (140 mM, Sigma, St. Louis, Mo.), sodium chloride (5 mM, Sigma, St. Louis, Mo.) and HEPES (10 mM) solution at a pH of 7.35. The pH was adjusted with potassium hydroxide and hydrochloric acid.
For characterizing the voltage-sensitivity of SHG and 2PF, we used a slow (˜0.1 Hz) switching protocol as previously described (A. C. Millard, P. J. Campagnola, W. Mohler, A. Lewis, and L. M. Loew, “Second Harmonic Imaging Microscopy,” Meth. Enzymol. 361, 47-69 (2003); Millard, A. C., L. Jin, and L. M. Loew, “Second Harmonic Generation Imaging Microscopy with a High Power Ultrafast Fiber Laser,” Commercial and Biomedical Applications of Ultrafast Lasers. 5714-5716, 92-98 (2005); A. C. Millard, L. Jin, M.-D. Wei, J. P. Wuskell, A. Lewis, and L. M. Loew, “Sensitivity of Second Harmonic Generation from Styryl Dyes to Transmembrane Potential,” Biophys. J. 86, 1169-1176 (2004)) with a 50 mV step. […]

[4] = One-photon fluorescence relative signal change per 100 mV; settings: excitation / long-pass emission (nm) given
Excerpt: The left-most data columns of Table 1 are the absorption and emission maxima for one photon fluorescence in soybean multi-lamellar lipid vesicles used to mimic the membrane environment. The column indicating relative signal change for one-photon fluorescence also lists the excitation light source used and the lower bounds of the long-pass emission detected.

SMILES	Absorbance ethanol [1]	Emission ethanol [1]	Absorbance MLV ([1]; multilamellar lipid vesicles)	Emission MLV ([1]; multilamellar lipid vesicles)	Absorbance water [1]	polarity of optical signal at 532 nm excitation [2]	polarity of optical signal at 658 nm excitation [2]	dF/F at 658 nm [2]	S/N ratio at 658 nm [2]	average amplitude of AP-associated optical signal, 658 nm excitation ([2]; n=4 cells, N=24 measurements)	average size of AP-associated optical signal, 532 nm excitation ([2]; same 4 cells)	average amplitude ratio of AP-associated signal at two wavelengths (658/532 nm) ([2]; same cell and region of interest)	SHG kinetics, in words [3]	2PF signal sensitivity detected between 750-850 nm ([3]; kinetics data, FIG. 3c)	2PF kinetics (time of signal change) ([3]; time resolution 5 ms)	SHG Kinetics (exponential time constant) ([3]; time resolution 5 ms)	1PF Abs. Max [1]	1PF Em. Max [1]	1PF Change (ΔF/F-100 mv) [4]
CN(C)c1ccc(/C=C/c2ccc(/C=C/c3cc[n+](CCC[N+](C)(C)C)c4ccccc34)o2)cc1 [JPW-3080]	630 nm	896 nm	569 nm	730 nm	554 nm	negative optical signals	positive	5.13 ± 1.20%	6.20 ± 2.29	4.13±0.96 % ΔF/F	0.97±0.26 % ΔF/F	4.39±1.07							
CCN(CC)c1ccc(-c2ccc(-c3ccc(/C=C/c4cc[n+](CCC[N+](CC)(CC)CC)cc4)s3)s2)s1 [PY-1268]	588 nm		535 nm		508 nm			5.89 ± 3.41%	4.44 ± 0.75				instantaneously	4.28 %/50 mV	≤ 5 ms	<5 ms	535 nm	714 nm	4.2E−002; 640/>715 ΔF/F-100 mv
CC[N+](CC)(CC)CCC[n+]1ccc(/C=C/c2ccc(-c3ccc(N4CCCC4)s3)s2)cc1 [PY-1274]																	551 nm	691 nm	5.0E−002; 620/>715 ΔF/F-100 mv
CCC[N+](CCC)(CCC)CCC[n+]1ccc(/C=C/c2ccc(-c3ccc(N(CC)CC)s3)s2)cc1 [PY-1278]													instantaneous				555 nm	688 nm	7.9E−002; 640/>715 ΔF/F-100 mv
CCCCN(CCCC)c1ccc2cc(/C=C/C=C/c3cc[n+](CCC[N+](C)(C)C)c4ccccc34)ccc2c1.[Br-].[Br-] [di-4-ANBDQPQ, Di-4-ANBDQPQ, reference compound]	603 nm	818 nm	539 nm		552 nm			1.23 ± 0.66%	4.97							<5 ms	539 nm	708 nm	2.0E−001; 618/>715 ΔF/F-100 mv
CCCCN(CCCC)c1ccc2cc(/C=C/c3cc[n+](CCC[N+](C)(C)C)c4ccccc34)ccc2c1.[Br-].[Br-] [di-4-ANEQPQ, reference compound]																76 ± 13 ms	528 nm	670 nm	1.2E−001; 610/>665 ΔF/F-100 mv
CCCCN(CCCC)c1ccc2cc(/C=C/C=C/C=C/c3cc[n+](CCC[N+](C)(C)C)c4ccccc34)ccc2c1.[Br-].[Br-] [di-4-ANHTQPQ, reference compound]																34 ± 3 ms	504 nm	655 nm	5.4E−002; 630/>715 ΔF/F-100 mv
